# Data taken from US10449221B2, “Differentiation of stem cells into thyroid tissue” (TRUSTEES OF BOSTON UNIVERSITY, priority 2015, dated 2019).
# B1: Dkk1: Wnt inhibitor (protein, UniProt O94907 32-266, looked up)
# Dickkopf-related protein 1: TLNSVLNSNAIKNLPPPLGGAAGHPGSAVSAAPGILYPGGNKYQTIDNYQPYPCAEDEECGTDEYCASPTRGGDAGVQICLACRKRRKRCMRHAMCCPGNYCKNGICVSSDQNHFRGEIEETITESFGNDHSTLDGYSRRTTLSSKMYHTKGQEGSVCLRSSDCASGLCCARHFWSKICKPVLKEGQVCTKHRRKGSHGLEIFQRCYCGEGLSCRIQKDHHQASNSSRLHTCQRH
# B2: bone morphogenetic protein 4 (protein, UniProt P12644 293-408, looked up)
# Bone morphogenetic protein 4: SPKHHSQRARKKNKNCRRHSLYVDFSDVGWNDWIVAPPGYQAFYCHGDCPFPLADHLNSTNHAIVQTLVNSVNSSIPKACCVPTELSAISMLYLDEYDKVVLKNYQEMVVEGCGCR
# notes: growth factor in specification media
# Legend:
# [1] = test system: Xenopus embryos; assay: Xenopus whole embryo culture in pathway antagonists, in-situ hybridization for thyroid markers; type: in vivo; conditions: for nkx2-1 induction in the developing thyroid primordium: inhibitor from stage NF13 through NF35, XAV939 50 μM, BMS493 10 μM
# Protocol: Xenopus embryos were generated by in vitro fertilization and assayed by in situ hybridization or confocal immunostaining as previously described (Rankin et al., 2015). Small molecule inhibitors were dissolved in DMSO according to manufacturer's instructions and added to the embryo culture saline at the following working concentrations: 10 μM SU5402 (Tocris Bioscience), 40 μM DMH-1 (Sigma), 50 μM XAV939 (Sigma) and 10 μM BMS493 (Tocris Bioscience). Foregut explants were dissected from stage NF15 and treated with Dispase (BD Pharmingen) for 15 minutes and then the mesoderm was manually removed. Foregut endoderm was then cultured in 0.5× Modified Barth's Saline with 0.1% BSA with or without 500 ng/ml rhFGF2 and 50 ng/ml rhBMP4 (R&D systems).
# [2] = test system: Nkx2-1GFP+; Pax8tdTomato trace+ iPSC-derived cells; assay: Lineage specification of bifluorescent reporter iPSC line by day 14; type: cell-based, mouse; conditions: data not shown; for efficiency of lineage specification, percent yield of GFP+/tdTomato+ cells: factor withdrawn or removed from the Nkx2-1 induction media; for efficiency of lineage specification of Nkx2-1GFP+; Pax8tdTomato trace+ cells: Wnt inhibitor added to induction media
# [3] = test system: ESC-derived definitive endoderm; assay: Nkx2-1+ endoderm induction from ESC-derived endoderm, specification media day 6-14, flow cytometry on day 14; type: cell-based, mouse; conditions: for Nkx2-1+ cell specification by day 14: factor(s) present in induction media day 6-14; for Nkx2-1+ endodermal induction efficiency: sequential withdrawal of each individual factor from the WFKBE+2 cocktail
# Protocol: Definitive endoderm induction was performed in complete serum-free differentiation medium (cSFDM) consisting of 75% IMDM (Invitrogen 12440) and 25% Ham's Modified F12 medium (Cellgro 10-080-CV) supplemented with N2 and B27+RA (Invitrogen 17502-048 and 17504-44), 0.05% BSA (Invitrogen 15260-037), […] L-glutamine (Invitrogen 25030-081), 0.05 mg/ml ascorbic acid (Sigma A4544) and 4.5×10^-4M MTG (Sigma M6145) as previously described (Gouon-Evans et al., 2006, Longmire et al., 2012). Undifferentiated ESCs were trypsinized to form a single cell suspension and plated onto Petri dishes (500,000 cells/10 cm dish) resulting in the formation of embryoid bodies (EBs) over 60 hours. EBs were dissociated by trypsinization (0.05%, 1 min, 37° C.) and plated as single cells into cSFDM supplemented with 50 ng/ml Activin A (R&D systems 338-AC) for an additional 60 hours. For Anteriorization of endoderm, on day 5 (120 total hours of differentiation) EBs were plated onto p100 Petri dishes in Nog/SB media: cSFDM supplemented with 100 ng/ml mNoggin (R&D 1967-NG) and 10 μM SB431542 (Sigma S4317) as previously described (Longmire et al., 2012). For Nkx2-1+ endoderm induction, EBs were plated on gelatin coated 6 well plates at the equivalent density of 200,000 cells/well in Specification media: cSFDM supplemented as stated in the text with 100 ng/ml mWnt3a (R&D 1324-WN), 10 ng/ml hFGF10 (R&D 345-FG), 10 ng/ml mKGF (R&D 5028-KG), 10 ng/ml mBMP4 (R&D 5020-BP), 20 ng/ml hEGF (R&D 236-EG), 250 ng/ml mFGF2 (R&D 3139-FB) and 100 ng/ml Heparin Sodium Salt (Sigma […]2-1mCherry+ cells, or the populations otherwise indicated in the text were sorted using MoFlo or […] II SORP high speed cell sorters and replated onto gelatin-coated 24 well plates on day 12-14 at a density of 5×10^4 cells/well. Where indicated in the text, small molecule inhibitors were dissolved in DMSO according to manufacturer's instructions and added to the culture media from day 6 to 14 at the following working concentrations: Dorsomorphin 4 μM (Sigma P5499), PD98059 20 μM, SB203580 10 μM (both from Cell Signaling Technology, PHZ1164 and 5633), and LY294002 […] (Promega V1201).
# [4] = test system: Nkx2-1mCherry ESC line; assay: Maturation of ESC-derived Nkx2-1mCherry+ thyroid progenitors, marker mRNA by RT-PCR; type: cell-based, mouse; conditions: for thyroid specific gene expression: media used from D22 to D26, RT-PCR at Day 26
# Protocol: Further differentiation and maturation of Nkx2-1+ sorted cells was performed in either 2D or 3D culture conditions, as indicated in the text. For 2D differentiation cells sorted on day 14 were replated and grown for 8 more days in cSFDM supplemented with 250 ng/ml mFGF2, 100 ng/ml hFGF10 and 100 ng/ml Heparin Sodium Salt. […] During the first 48 hours after sorting media was supplemented with 10 μM Y27632 (Sigma Y0503). From day 20-26 5 μg/ml ITS was included in the media. […] For cultures longer than 30 days, cells were splitted using Dispase (Corning 354235) on Day 30 and re-embedded in pure Matrigel, and fed with thyroid maturation media until the harvest day indicated in the text. RNA (for FIGS. 1 to 3 and 11c) was extracted from cells using the RNeasy kit (Qiagen 74104) following the manufacturer's protocol. 150 ng of RNA was reverse transcribed to cDNA using TaqMan reverse transcription reagents (Applied Biosystems N8080234) and the manufacturer's protocol. cDNA template was diluted 1:4, and 2 μl of the diluted template was used per 25 μl real time PCR reaction using Taqman Fast Universal PCR Master Mix (Applied Biosystems 4352042) and run in technical triplicates up to 40 cycles of PCR on the Applied Biosystems StepOne machine. Alternatively, 1 μl of the diluted template was used per 13 μl real time reaction on the Applied Biosystems 7900HT Real Time PCR System. Relative gene expression, normalized to 18S control, was calculated as fold change in 18S-normalized gene expression, over baseline, using the 2^(-ΔΔCT) method. Baseline, defined as fold change=1, was set to undifferentiated embryonic stem cell levels, or if undetected, a cycle number of 40 was assigned to allow fold change calculations. For FIGS. 5 and 11 (except FIG. 11c) total RNA was extracted from cultured cells using Stat-60 reagent (Tel-Test Cs-502). Then, 150 ng of total RNA was reverse transcribed using a SuperScript Vilo cDNA synthesis kit from Invitrogen. qPCR was performed in duplicate using the 800HT thermal cycler (Applied Biosystems). Relative mRNA levels were calculated using the standard curve method and normalized to peptidylprolyl isomerase A (cyclophilin). Cyclophilin expression was quantified with custom-made primers and probe (Forward primer: [NT]. ID. NO: 1), Reverse primer: [NT]. ID. NO: 2; Probe: [NT]. ID. NO: 3).
molecule,measurement,setting,value
Cc1c[nH]c(/C=C2\C(=O)Nc3ccccc32)c1CCC(=O)O [SU5402],"induction of thyroid markers foxe1, nkx2-1, pax2 and hhex","[1]; inhibitor from stage NF13 until NF20, DMH-1 40 μM, SU5402 10 μM",abrogated induction of all four thyroid markers in the vast majority of embryos
fibroblast growth factor 2 (basic) [FGF2],"efficiency of lineage specification, percent yield of GFP+/tdTomato+ cells",[2],significant decrease in the percent yield of GFP+/tdTomato+ cells
same,Nkx2-1+ cell specification by day 14,[3],induced low numbers of Nkx2-1+ cells with little thyroid competence
same,Nkx2-1+ endodermal induction efficiency,[3],indispensible for efficient Nkx2-1+ endodermal induction
CC1(C)CC=C(C#Cc2ccccc2)c2cc(/C=C/c3ccc(C(=O)O)cc3)ccc21 [BMS493],nkx2-1 induction in the developing thyroid primordium,[1],normal nkx2-1 induction
thyroid stimulating hormone [TSH],"Nis, Tsh-r, and Tpo expression","[4]; TSH added after lineage specification, day 14-22","significant augmentation of Nis, Tsh-r, and Tpo expression"
same,expression of lineage markers Nkx2-1 and Pax8,"[4]; TSH added day 14-22, data not shown",no significant change
same,efficiency of thyroid lineage specification,"[4]; TSH added prior to lineage specification, day 9-12, data not shown",no detectable effect
same,Nis and Tsh-r expression,[4]; additional 3 days of culture maturation in the presence of TSH (Day 25 vs Day 22),further augmentation of Nis and Tsh-r expression
same,thyroid specific gene expression,[4],increase thyroid specific gene expression
same,thyroid maturation marker Nis,"[4]; substitution of TSH for cAMP in the DCI+K media, day 22-26","most robust augmentation of the thyroid maturation marker, Nis"
"Nc1ncnc2c1ncn2[C@@H]1O[C@@H]2COP(=O)(O)O[C@H]2[C@H]1O [cAMP, cyclic adenosine monophosphate, reference compound]",thyroid specific gene expression,[4],increase thyroid specific gene expression
same,maturation marker expression,"[4]; withdrawal of the factor from the DCI+K cocktail, day 22-26",adversely affected maturation
"Oc1nc(-c2ccc(C(F)(F)F)cc2)nc2c1CSCC2 [XAV939, reference compound]",efficiency of lineage specification of Nkx2-1GFP+; Pax8tdTomato trace+ cells,[2],no significant impact
same,nkx2-1 induction in the developing thyroid primordium,[1],normal nkx2-1 induction
B1,efficiency of lineage specification of Nkx2-1GFP+; Pax8tdTomato trace+ cells,[2],no significant impact
B2,"efficiency of lineage specification, percent yield of GFP+/tdTomato+ cells",[2],significant decrease in the percent yield of GFP+/tdTomato+ cells
same,Nkx2-1+ cell specification by day 14,[3],induced low numbers of Nkx2-1+ cells with little thyroid competence
same,Nkx2-1+ endodermal induction efficiency,[3],indispensible for efficient Nkx2-1+ endodermal induction
